The data set can be described thus: gradient 5% acetonitrile 3 min, to 50% in 2 min, to 85% in 15 min, held 3 min, 100 µL/min. As to conditions: column: Zorbax Extend-C18 2.1 x 50 mm; eluents: water / acetonitrile, 0.1% formic acid. An outline of the steps: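 Data were gathered over 3 months by HPLC coupled to a quadrupole time-of-flight mass spectrometer, operated in positive and negative ionization mode. Mixtures of ~100 pure standards ran on a Zorbax Extend-C18 column (2.1 × 50 mm, 1.8 μm) at 100 μL/min, with water and acetonitrile each containing 0.1% formic acid and dead and dwell volumes of 40 μL and 900 μL. Retention time was read from adduct peaks picked by computer and checked manually.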
The molecule `O=C(NCCc1nc2cccnc2n1-c1ccccc1)c1ccoc1` came in with an RP-LC retention time of 646 s.

`COc1ccc(C(=O)NCCc2sc(-c3cccc(F)c3)nc2C)c(OC)c1`: the RP-LC retention time was 921 s.

`CCOc1cccc(-c2noc(Cc3nnc(-c4cccc(OC)c4)o3)n2)c1`: the RP-LC retention time was 1080 s.

The molecule `COc1ccc(-c2cn3c(CC(=O)NC4CCCC4)csc3n2)cc1OC` gave an RP-LC retention time of 660 s.

`CCCC1c2nccn2CCCN1C(=O)CCc1c(C)noc1C` (centres undefined) gave an RP-LC retention time of 595 s.

As to `CCc1cccc(C)c1Nc1c(-c2ccc(N3CCOCC3)cc2)nc2cnccn12`, the RP-LC retention time was found to be 817 s.

`COc1ccc(CCNC(=O)c2cc3c(=O)n(C)c(=O)n(C)c3s2)cc1OC`: the RP-LC retention time amounted to 668 s.

Take `CN(C)C(=O)c1cccc2c1CCN2C(=O)c1ccc(F)cc1`: the RP-LC retention time turned out to be 719 s.

In the case of `CN(Cc1nc2ccccc2n1CCc1ccccc1)C(=O)c1ccco1`, the RP-LC retention time turned out to be 706 s.

Regarding `CCOC(=O)c1ccc(NS(=O)(=O)c2cc3n(c2)CCN(C)C3=O)cc1`, the RP-LC retention time came out at 702 s.

`CCOCCCNC(=O)N1CCN(c2nc3ccccc3n(Cc3ccccc3)c2=O)CC1`: the RP-LC retention time was 914 s.

`CC1=NS(=O)(=O)N(Cc2ccccc2)C=C1C(=O)OCc1nc(-c2ccccc2)no1` displayed an RP-LC retention time of 1120 s.

With `CC1CCN(C(=O)CSc2nnc(-c3ccccc3F)o2)CC1`, the RP-LC retention time came to 901 s.

`CCN(CC)CCNC(=O)C1CCCN(c2ncc(-c3cccc(F)c3)cn2)C1` (centres undefined): the RP-LC retention time came out at 688 s.

Molecule `COc1ccc(-c2csc3c(=O)n(CC(=O)N4CCCC4)cnc23)cc1` yielded an RP-LC retention time of 760 s.

Take `COc1ccc(OC)c(S(=O)(=O)N2CCN(c3ccccn3)CC2)c1`: the RP-LC retention time is 594 s.

`Cc1cccc(-c2noc(Cn3ncn4nc(-c5ccc(C)cc5C)cc4c3=O)n2)c1`: the RP-LC retention time is 878 s.

The molecule `CCNC(=O)c1cc(=O)[nH]c2c(C)cccc12` registered an RP-LC retention time of 793 s.

Turning to `CSc1ccc(CNC(=O)C2CCCN(c3ccnc(-c4ccc(F)cc4)n3)C2)cc1` (centres undefined), the RP-LC retention time was 728 s.

`CCN1C(=O)c2cccnc2Sc2cc(NC(=O)c3ccccc3OC)ccc21` had an RP-LC retention time of 868 s.

The molecule `CCCN1CCN(CCCNC(=O)c2ccc3c(c2)N(C)C(=O)C2CCCCN32)CC1` (centres undefined) came in with an RP-LC retention time of 597 s.

`COc1ccc(NC(=O)CCC2CCN(c3cc(NC4CC4)ncn3)CC2)cc1OC` showed an RP-LC retention time of 646 s.

The molecule `CCOc1ccc(CNC(=O)CC2CCN(C(=O)c3[nH]c(C)c(C(=O)OC)c3C)CC2)cc1` showed an RP-LC retention time of 750 s.

Regarding `O=C1NCCCn2cc(S(=O)(=O)Nc3ccc(Cl)cc3)cc21`, the RP-LC retention time stood at 682 s.

Regarding `CCOC(=O)c1cc([N+](=O)[O-])sc1NC(=O)c1c(-c2ccccc2Cl)noc1C`, the RP-LC retention time stood at 1220 s.

In turn, `O=C(Nc1ccc(F)cc1)N1CCC(n2cnc3c(Cl)cccc3c2=O)CC1` showed an RP-LC retention time of 805 s.

`CCCS(=O)(=O)N1CCC(C2CCN(C(=O)NC)CC2)C1` (centres undefined) showed an RP-LC retention time of 659 s.

Take `Cc1ccc(NC(=O)C2CCCN(c3nc4ccsc4c(=O)n3Cc3ccc(F)cc3)C2)cc1` (centres undefined): the RP-LC retention time is 1030 s.

Turning to `Cc1ccc(Oc2nccnc2N2CCC(C(=O)NCCCN3CCOCC3)CC2)cc1`, the RP-LC retention time turned out to be 648 s.

On to `O=C(Cc1csc(-c2ccccc2)n1)Nc1nc(-c2ccc(F)cc2)cs1`, for which the RP-LC retention time was 1140 s.

Turning to `Cc1cc(NC(=O)Cn2ccn3nc(-c4ccccc4)c(CO)c3c2=O)n[nH]1`, the RP-LC retention time is 644 s.

Consider `O=C(Cc1nc(-c2ccccc2)n[nH]1)Nc1cccc(Cl)c1`, for which the RP-LC retention time came out at 800 s.

Molecule `Cc1nc(Nc2ccc(F)cn2)sc1C(=O)N1CCc2ccccc2C1` yielded an RP-LC retention time of 872 s.

For `Cc1ccc(-c2csc(NC(=O)c3nc4ccccc4s3)n2)o1`, the RP-LC retention time was 1120 s.

The molecule `c1ccc(COCCc2noc(C3CN(Cc4ccccc4)C3)n2)cc1` returned an RP-LC retention time of 693 s.

For the molecule `CCc1ccccc1NC(=O)N1CCCC(C)(C(=O)NCc2ccccc2C)C1` (centres undefined), the RP-LC retention time came out at 1020 s.

In the case of `Cc1ccc(C2Cn3nnc(-c4nc(-c5ccccc5)no4)c3CO2)c(C)c1` (centres undefined), the RP-LC retention time was found to be 1240 s.

Molecule `COc1cc(OC)cc(-c2nc(-c3nnn(Cc4ccccc4)c3C)no2)c1` showed an RP-LC retention time of 1060 s.

Turning to `c1cn(-c2cc(N3CCCCC3)ncn2)cn1`, the RP-LC retention time is 613 s.

`Cc1ccccc1-n1c(-c2ccc(Cl)cc2)cn2c3c(=O)n(C)c(=O)n(C)c3nc12` returned an RP-LC retention time of 1020 s.

Take `COc1ccc2nc(NC(=O)Cn3nc(C(=O)N4CCOCC4)c4ccccc43)sc2c1`: the RP-LC retention time was found to be 761 s.

The molecule `Cc1nn(-c2ccc(C(=O)N3CCN(c4ccccn4)CC3)cc2)c2c1C(=O)CCC2` showed an RP-LC retention time of 574 s.

Regarding `COc1ccc(-c2nnc(-c3nc(NCc4ccc(C)o4)c4ccccc4n3)o2)cc1`, the RP-LC retention time turned out to be 985 s.

Take `COCCN1C(=O)[C@H]2CN(Cc3ccccc3)C[C@H]2C1=O`: the RP-LC retention time came out at 572 s.

On to `CCCC(=O)Nc1ccc2c(c1)CN(C(=O)Cc1ccc(C)cc1)C(C(=O)N(C)C)C2` (centres undefined), for which the RP-LC retention time turned out to be 748 s.

Molecule `CC(C)(C)n1nc2c(c1NC(=O)c1nc3ccccc3s1)CSC2` registered an RP-LC retention time of 952 s.

Molecule `Cc1nnc(NC(=O)c2cn(Cc3cccc(F)c3)nc2OCc2cccc(F)c2)s1` showed an RP-LC retention time of 935 s.

As to `Cn1cnc(S(=O)(=O)N2CCC(Oc3ccc(-c4noc(C5CC5)n4)cc3)C2)c1` (centres undefined), the RP-LC retention time was found to be 788 s.

Take `Cn1nccc1C(=O)Nc1ccc(OCc2nnc(-c3ccc(Cl)cc3)o2)cc1`: the RP-LC retention time is 864 s.

Turning to `COCCn1ccc2c(OCC(=O)N(C(C)C)C(C)C)cccc2c1=O`, the RP-LC retention time stood at 798 s.

`Fc1ccc(-c2nc(-c3ccc4nncn4c3)no2)c(Cl)c1`: the RP-LC retention time is 849 s.

The molecule `O=C(c1cc(-c2cccnc2)n[nH]1)N1CCN(C(=O)c2ccc(Br)o2)CC1` returned an RP-LC retention time of 605 s.

On to `O=C(COc1ccc([N+](=O)[O-])cc1)Nc1ccc(S(=O)(=O)N2CCCCC2)cc1`, for which the RP-LC retention time worked out at 886 s.

With `CN(C)C(=O)c1ccc2c(c1)N(CC(=O)Nc1ccccn1)C(=O)C1CCCCN21` (centres undefined), the RP-LC retention time was found to be 680 s.

`Cc1ccc(CNS(=O)(=O)c2cn(CC(C)C)c3ncccc23)cc1` displayed an RP-LC retention time of 1050 s.

In turn, `CC(C)CCNC(=O)C1(C)CN(S(=O)(=O)c2ccccc2)CC(=O)N1Cc1ccccc1` (centres undefined) showed an RP-LC retention time of 973 s.

Turning to `COCc1nncn1C1CCN(S(=O)(=O)c2ccc(F)c(Cl)c2)CC1`, the RP-LC retention time turned out to be 739 s.

Molecule `CCOc1ccccc1-c1noc(Cn2c(=O)n(Cc3ccc(C)cc3)c(=O)c3sccc32)n1` gave an RP-LC retention time of 1170 s.

Regarding `Cc1cc(C)c(NC(=O)Cn2cnc3nc(N4CCC(C(=O)NC5CC5)CC4)sc3c2=O)c(C)c1`, the RP-LC retention time came to 754 s.

The molecule `Nc1ccc(CCNc2ncnc3c2ncn3C2OC(CO)C(O)C2O)cc1` (centres undefined) gave an RP-LC retention time of 540 s.

With `CCCC(NC(=O)CCc1ccc(OC)cc1)C(=O)Nc1nc2ccccc2[nH]1` (centres undefined), the RP-LC retention time was found to be 713 s.

In turn, `Cc1ccc(CNC(=O)C2c3ccccc3CC(=O)N2C)cc1` (centres undefined) displayed an RP-LC retention time of 748 s.

In turn, `CCCS(=O)(=O)N1CCc2c(c(-c3nncn3Cc3ccccc3)nn2C)C1` registered an RP-LC retention time of 769 s.

Regarding `CC(C)(C)c1csc(-c2csc(S(=O)(=O)NCc3ccccc3F)c2)n1`, the RP-LC retention time came out at 1220 s.

In the case of `COc1ccc(-c2cc(N3CCC(NC(=O)c4ccc(Cl)cc4)C3)n[nH]2)cc1` (centres undefined), the RP-LC retention time was 739 s.

`CC(C)(C)c1noc(-c2ccnc(-n3cnc(C(=O)N4CCSCC4)c3)c2)n1` displayed an RP-LC retention time of 952 s.

For the molecule `CCOC(=O)c1ccc(NC(=O)Cn2c(=O)cc(-c3nc(C)no3)c3ccccc32)cc1`, the RP-LC retention time amounted to 903 s.

Molecule `CCOC(=O)c1c(C)[nH]c(C(=O)N2CCC(CC(=O)NCc3cccc(C)c3)CC2)c1C` displayed an RP-LC retention time of 820 s.

In the case of `O=C(CCC1CCN(c2cc(NC3CC3)ncn2)CC1)N1CCN(c2ccccn2)CC1`, the RP-LC retention time turned out to be 536 s.

For `CC(C)n1cc(CN2CCOCCNC(=O)CC2)c2ccccc21`, the RP-LC retention time was determined as 631 s.

The molecule `Cc1nc(NCCNC(=O)c2snnc2C)cc(-n2cccn2)n1` gave an RP-LC retention time of 627 s.

In turn, `Cc1ccc(CN2CC(=O)N(c3cccc(C)c3)[C@@H]3CS(=O)(=O)C[C@@H]32)cc1` showed an RP-LC retention time of 855 s.

With `O=C(Nc1c(-c2ccc(F)cc2)nc2ccccn12)c1cccc(Cl)c1`, the RP-LC retention time came out at 750 s.

With `Cc1nn2c(S(=O)(=O)N3CCOCC3)c(C)nc2s1`, the RP-LC retention time worked out at 656 s.

In the case of `CCN1CCCC1CNC(=O)Cn1c2ccccc2c2cnn(C)c(=O)c21` (centres undefined), the RP-LC retention time was determined as 554 s.

`COc1cc(OC)c(N(C)C(=O)C2CCCN(c3ncnc4c3nc3n4CCCCC3)C2)cc1Cl` (centres undefined) showed an RP-LC retention time of 854 s.

Molecule `Cn1cccc1-c1cc2n(n1)CCCN2C(=O)CCC(=O)NCc1ccc(F)cc1` registered an RP-LC retention time of 717 s.

`COCCCNC(=O)c1ccc(-n2nc(Sc3ccc(Cl)cc3)ccc2=O)cc1` had an RP-LC retention time of 863 s.

On to `CCc1noc(NC(C)=O)c1-c1ccc(OC)c(S(=O)(=O)Nc2cccc(Cl)c2C)c1`, for which the RP-LC retention time came out at 894 s.
